Test results published in publication doi:10.1101/2024.08.22.609123v2 (biorxiv, 2024).
pIC50, pKd: −log10 of the molar value.

Assays:
GPX4 = biological target: T1, GPX4 (Homo sapiens, UniProt P36969); assay: coupled glutathione reductase / NADPH assay, […] nm; format: biochemical
T1 sequence (P36969 28-197): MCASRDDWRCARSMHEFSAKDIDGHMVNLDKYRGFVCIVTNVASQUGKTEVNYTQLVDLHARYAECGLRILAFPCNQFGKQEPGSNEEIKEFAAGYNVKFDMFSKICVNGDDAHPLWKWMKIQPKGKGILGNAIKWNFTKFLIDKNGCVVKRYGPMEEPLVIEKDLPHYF

GPX4 (residues 28-197) = biological target: T2, GPX4 (residues 28-197) (Homo sapiens, UniProt P36969); assay: SPR; format: binding
T2 sequence (P36969 28-197): T1 sequence (P36969 28-197)

Cc1ccc(C(=O)O)cc1-c1ccc(/C=C2\SC(=O)N(Cc3ccc(F)cc3)C2=O)o1 [DP021]
pIC50 (GPX4): 5.38
pKd (GPX4 (residues 28-197)): 5.74

COC(=O)c1ccc(C)c(-c2ccc(/C=C3\SC(=O)N(Cc4ccc(F)cc4)C3=O)o2)c1 [DP037]
pIC50 (GPX4): < 4.00
